{
  "source": "patent US4261910A",
  "about": "“Process for the preparation of Chlorambucil derivatives” (Kureha Kagaku Kogyo Kabushiki Kaisha, priority 1978, dated 1981)",
  "key": {"[1]": {"assay": "Acute toxicity (LD50)", "parameters": "species or system mice (ICR-JCL)", "details": "mouse, in vivo; for LD50: Test 2, route and unit inferred; for LD50 at 168 h: mice", "protocol": "In the measurement of LD50, eight ICR-JCL female mice (5 week age) were used as one group to breed in a transparent polycage, and each drug was dissolved in olive oil and administrated by routes of intraperitoneal injection (i.p.), oral administration (p.o.) and subcutaneous injection (s.c.), to the mice at one dose, and then, their value of LD50 by Litchfield-Wilcoxon graph method is obtained after 7 days. LD50 of Chlorambucil was i.p. 20 mg./kg., p.o. 80 mg./kg., and s.c. 26 mg./kg., LD50 of the sample No. 2 in Table 1 of the present invention was i.p. greater than 3000 mg./kg., p.o. greater than 6000 mg./kg. and s.c. greater than 3000 mg./kg.. […]"}, "[2]": {"test_system": "human breast cancer cells having steroid hormone receptor", "assay": "Test 2: antitumor effect, dispersion in Polysolvate 80, intraperitoneal injection", "format": "in vivo, human (implanted in BALB/C-nu/nu mice)", "details": "Polysolvate 80 dispersion", "description": "(§1) Pieces of human breast cancer cells having steroid hormone receptor were subcutaneously implanted under the arm of mice (BALB/C-nu/nu) (5 week age) to form solid tumors. After the solid tumors were established, each dispersion or solution of the active ingredient in olive oil was administrated by oral dose or intraperitoneal injection each other day for 10 times or every days for 20 times. Twenty five days from the initial administration, the tumors were excised. Efficiency of inhibition of tumor proliferation was measured from (A) each average weight of excised tumors for 10 mice (the active ingredient was administrated) and (B) each average weight of excised tumors for 10 control mice. [formula]\nIn accordance with the test I, except administrating each active ingredient in a form of dispersion dispersed in Polysolvate 80 (emulsifier) by an intraperitoneal injection in the test of antitumor effect."}, "[3]": {"test_system": "estrogen receptor", "assay": "Test 3: binding function to estrogen sensitive cells (displacement of 3H-estradiol from uterus of rabbit)", "protocol": "Binding function of 3-hydroxy-1,3,5(10)-estratriene-17β-[4-{p-[bis(2-chloroethyl)amino]phenyl}butyryloxy]acetate to estrogen sensitive cells.\nEstradiol labelled by tritium (^3 H) was incubated with uterus of rabbit to bind it and then, the sample was added to the system to measure the amount of free ^3 H-estradiol which was replaced by the […]."}, "[4]": {"test_system": "human breast cancer cells having steroid hormone receptor", "assay": "Antitumor test (in vivo), implanted human breast cancer, drug in olive oil", "parameters": "species or system human (implanted in BALB/C-nu/nu mice)", "details": "oral administration", "description": "as §1"}, "[5]": {"test_system": "spleen, uterus and thymus", "assay": "Observation in autopsy", "format": "in vivo, mice (BALB/C-nu/nu)", "details": "autopsy after administration", "description": "as §1"}, "[6]": {"test_system": "human breast cancer cells having steroid hormone receptor", "assay": "Antitumor test (in vivo), implanted human breast cancer, drug in olive oil", "parameters": "species or system human (implanted in BALB/C-nu/nu mice)"}, "[7]": {"details": "ip, single dose in olive oil, i.p., 7 days, read-out: LD50"}, "[8]": {"details": "po, oral administration, Table 1, read-out: LD50 (Oral administration)"}, "[9]": {"details": "po, single dose in olive oil, p.o., 7 days, read-out: LD50"}, "[10]": {"details": "sc, single dose in olive oil, s.c., 7 days, read-out: LD50"}, "[11]": {"details": "sc, subcutaneous administration, Table 1, read-out: LD50 (Subcutaneous administration)"}, "[12]": {"details": "subcutaneous administration, 5 mg/kg"}, "[13]": {"details": "subcutaneous administration, 10 mg/kg"}},
  "note": "Where two headings read alike, the source gives them in different places.",
  "data": [
    {"smiles": "C[C@]12CC[C@@H]3c4ccc(O)cc4CC[C@H]3[C@@H]1CC[C@@H]2OC(=O)COC(=O)CCCc1ccc(N(CCCl)CCCl)cc1", "note": "[3-hydroxy-1,3,5(10)-estratriene-17β-[4-{p-[bis(2-chloroethyl)amino]phenyl}butyryloxy]acetate]", "values": [
      {"measurement": "LD50", "setting": "[1]; ip", "result": "> 1000", "unit": "mg/kg"},
      {"measurement": "Inhibitory effect (%)", "setting": "[2]; 0.5 mg./kg.", "result": 91, "unit": "%"},
      {"measurement": "Inhibitory effect (%)", "setting": "[2]; 5 mg./kg.", "result": 97, "unit": "%"},
      {"measurement": "binding function to estrogen receptor", "setting": "[3]", "result": "has the binding function to estrogen receptor"},
      {"measurement": "free 3H-estradiol (displacement)", "setting": "[3]; compared with estradiol", "result": "free ^3 H-estradiol was increased as the same with estradiol itself"}
    ]},
    {"smiles": "O=C(O)CCCc1ccc(N(CCCl)CCCl)cc1", "note": "[Sample No. 1, 4-{p-[bis(2-chloroethyl)amino]phenyl}butyric acid, reference compound]", "values": [
      {"measurement": "LD50", "setting": "[1]; ip", "result": 20, "unit": "mg/kg"},
      {"measurement": "LD50 at 168 h", "setting": "[1]; [7]", "result": 20, "unit": "mg/kg"},
      {"measurement": "LD50 at 168 h", "setting": "[1]; [8]", "result": 80, "unit": "mg/kg"},
      {"measurement": "LD50 at 168 h", "setting": "[1]; [9]", "result": 80, "unit": "mg/kg"},
      {"measurement": "LD50 at 168 h", "setting": "[1]; [10]", "result": 26, "unit": "mg/kg"},
      {"measurement": "LD50 at 168 h", "setting": "[1]; [11]", "result": 26, "unit": "mg/kg"},
      {"measurement": "Efficiency of inhibition", "setting": "[4]; 10 mg/kg", "result": 55, "unit": "%"},
      {"measurement": "Survived ratio", "setting": "[4]; 10 mg/kg", "result": "8/10"},
      {"measurement": "Efficiency of inhibition", "setting": "[4]; 15 mg/kg", "result": 70, "unit": "%"},
      {"measurement": "Survived ratio", "setting": "[4]; 15 mg/kg", "result": "7/10"},
      {"measurement": "Inhibitory effect (%)", "setting": "[2]; 5 mg./kg.", "result": 30, "unit": "%"},
      {"measurement": "changes of spleen, uterus and thymus in autopsy", "setting": "[5]", "result": "serious changes of spleen, uterus and thymus were found"},
      {"measurement": "Efficiency of inhibition", "setting": "[6]; [12]", "result": 53, "unit": "%"},
      {"measurement": "Survived ratio", "setting": "[6]; [12]", "result": "9/10"},
      {"measurement": "Efficiency of inhibition", "setting": "[6]; [13]", "result": 71, "unit": "%"},
      {"measurement": "Survived ratio", "setting": "[6]; [13]", "result": "7/10"},
      {"measurement": "Efficiency of inhibition", "setting": "[6]; subcutaneous and oral administration, 15 mg./kg. (text, about)", "result": "50 to 70", "unit": "%"}
    ]},
    {"smiles": "C[C@]12CC[C@@H]3c4ccc(OC(=O)c5ccccc5)cc4CC[C@H]3[C@@H]1CC[C@@H]2OC(=O)COC(=O)CCCc1ccc(N(CCCl)CCCl)cc1", "note": "[Sample No. 2, 3-benzoyloxy-1,3,5(10)-estratriene-17β-[4-{p-[bis(2-chloroethyl)amino]phenyl}butyryloxy]acetate]", "values": [
      {"measurement": "LD50 at 168 h", "setting": "[1]; [7]", "result": "> 3000", "unit": "mg/kg"},
      {"measurement": "LD50 at 168 h", "setting": "[1]; [8]", "result": "> 6000", "unit": "mg/kg"},
      {"measurement": "LD50 at 168 h", "setting": "[1]; [9]", "result": "> 6000", "unit": "mg/kg"},
      {"measurement": "LD50 at 168 h", "setting": "[1]; [10]", "result": "> 3000", "unit": "mg/kg"},
      {"measurement": "LD50 at 168 h", "setting": "[1]; [11]", "result": "> 2000", "unit": "mg/kg"},
      {"measurement": "Efficiency of inhibition", "setting": "[4]; 10 mg/kg", "result": 92, "unit": "%"},
      {"measurement": "Survived ratio", "setting": "[4]; 10 mg/kg", "result": "10/10"},
      {"measurement": "Efficiency of inhibition", "setting": "[4]; 15 mg/kg", "result": 98, "unit": "%"},
      {"measurement": "Survived ratio", "setting": "[4]; 15 mg/kg", "result": "10/10"},
      {"measurement": "Efficiency of inhibition", "setting": "[6]; [12]", "result": 90, "unit": "%"},
      {"measurement": "Survived ratio", "setting": "[6]; [12]", "result": "10/10"},
      {"measurement": "Efficiency of inhibition", "setting": "[6]; [13]", "result": 98, "unit": "%"},
      {"measurement": "Survived ratio", "setting": "[6]; [13]", "result": "10/10"}
    ]},
    {"smiles": "CC(=O)Oc1ccc2c(c1)CC[C@@H]1[C@@H]2CC[C@]2(C)[C@@H](OC(=O)COC(=O)CCCc3ccc(N(CCCl)CCCl)cc3)CC[C@@H]12", "note": "[Sample No. 3, 3-acetoxy-1,3,5(10)-estratriene-17β-[4-{p-[bis(2-chloroethyl)amino]phenyl}butyryloxy]acetate]", "values": [
      {"measurement": "LD50 at 168 h", "setting": "[1]; [8]", "result": "> 3000", "unit": "mg/kg"},
      {"measurement": "LD50 at 168 h", "setting": "[1]; [11]", "result": "> 2000", "unit": "mg/kg"},
      {"measurement": "Efficiency of inhibition", "setting": "[4]; 10 mg/kg", "result": 91, "unit": "%"},
      {"measurement": "Survived ratio", "setting": "[4]; 10 mg/kg", "result": "10/10"},
      {"measurement": "Efficiency of inhibition", "setting": "[4]; 15 mg/kg", "result": 93, "unit": "%"},
      {"measurement": "Survived ratio", "setting": "[4]; 15 mg/kg", "result": "10/10"},
      {"measurement": "Efficiency of inhibition", "setting": "[6]; [12]", "result": 93, "unit": "%"},
      {"measurement": "Survived ratio", "setting": "[6]; [12]", "result": "10/10"},
      {"measurement": "Efficiency of inhibition", "setting": "[6]; [13]", "result": 95, "unit": "%"},
      {"measurement": "Survived ratio", "setting": "[6]; [13]", "result": "10/10"}
    ]},
    {"smiles": "CCC(=O)Oc1ccc2c(c1)CC[C@@H]1[C@@H]2CC[C@]2(C)[C@@H](OC(=O)COC(=O)CCCc3ccc(N(CCCl)CCCl)cc3)CC[C@@H]12", "note": "[Sample No. 4, 3-propionyloxy-1,3,5(10)-estratriene-17β-[4-{p-[bis(2-chloroethyl)amino]phenyl}butyryloxy]acetate]", "values": [
      {"measurement": "LD50 at 168 h", "setting": "[1]; [8]", "result": "> 3000", "unit": "mg/kg"},
      {"measurement": "LD50 at 168 h", "setting": "[1]; [11]", "result": "> 2000", "unit": "mg/kg"},
      {"measurement": "Efficiency of inhibition", "setting": "[4]; 10 mg/kg", "result": 93, "unit": "%"},
      {"measurement": "Survived ratio", "setting": "[4]; 10 mg/kg", "result": "10/10"},
      {"measurement": "Efficiency of inhibition", "setting": "[4]; 15 mg/kg", "result": 97, "unit": "%"},
      {"measurement": "Survived ratio", "setting": "[4]; 15 mg/kg", "result": "10/10"},
      {"measurement": "Efficiency of inhibition", "setting": "[6]; [12]", "result": 92, "unit": "%"},
      {"measurement": "Survived ratio", "setting": "[6]; [12]", "result": "10/10"},
      {"measurement": "Efficiency of inhibition", "setting": "[6]; [13]", "result": 94, "unit": "%"},
      {"measurement": "Survived ratio", "setting": "[6]; [13]", "result": "10/10"}
    ]}
  ]
}
